{
  "source": "paper PMC12035805",
  "about": "“A Water-Soluble Aggregation-Induced Emission Photosensitizer with Intrinsic Antibacterial Activity as an Antiplanktonic and Antibiofilm Therapeutic Agent” (Journal of Medicinal Chemistry, 2025)",
  "key": {"[1]": {"test": "Hemolysis of human erythrocytes", "format": "cell-based", "conditions": "200 μM compound, 1 h, 37 °C", "method": "(§1) The human erythrocyte concentrate was prepared according to the kit manual from the Biomaterial Hemolytic Assay Kit (Hemoscan). After the human erythrocytes had been washed and diluted with manufacture buffer, 100 μL of erythrocytes (10%) were added into 100 μL of various concentrations of compounds in PBS. 1% of Triton X (1%) was the positive control, while PBS was the negative control. The erythrocytes were then gently mixed with the TPA compounds and further incubated for an hour at 37 °C. After that, the erythrocytes were centrifuged (1000 rpm, 5 min), and 20 μL of supernatant was added to 180 μL of PBS in a 96-well plate. The optical density at 380, 415, and 450 nm was measured by a plate reader. The final OD value of the compounds was calculated as (2 × OD415) – (OD450 + OD380) where OD380, OD415, and OD450 are the optical density of the solution at 380, 415, and 450 nm, respectively. The hemolysis rates of the compounds were calculated as (ODcompound – ODPBS)/(ODTritonX – ODPBS) × 100% where ODcompound, ODPBS, and ODTritonX are the final OD values of the erythrocytes mixed with TPA compounds, PBS, and 1% Triton X, respectively. The experiment was performed in triplicate."}, "human erythrocytes": {"test_system": "human erythrocytes", "test": "Hemolysis of human erythrocytes", "format": "cell-based", "method": "as §1"}, "S. aureus (ATCC 29213)": {"test_system": "S. aureus (ATCC 29213)", "test": "MIC assay (broth microdilution, CLSI), without light", "format": "cell-based", "conditions": "Staphylococcus aureus, ATCC29213, light or radiation study; read-out: MIC against ATCC 29213 Staphylococcus aureus without light irradiation", "method": "(§2) The MIC assays of TPA-1 were conducted according to the broth microdilution methods described in the Clinical and Laboratory Standards Institute (CLSI) standard. A single colony of S. aureus (ATCC 29213), methicillin-resistant S. aureus (BAA 41), or P. aeruginosa (ATCC 27853) on an LB agar plate was picked and suspended in Mueller–Hinton Broth (MHB). The bacterial culture was grown overnight at 37 °C. The next day, the bacteria culture was diluted 100 times in fresh MHB and grown to the mid log phase. Bacteria in the mid log phase were further diluted to 5 × 10^6 CFU/mL in cation-adjusted MHB (S. aureus) or MHB (P. aeruginosa). Ten μL of the diluted bacteria were added to a 96-well plate containing 90 μL of serial diluted TPA-1 in the corresponding medium. The plate was incubated overnight at 37 °C. The MICs of the TPA compounds were the concentrations at which no apparent bacteria were observed by the naked eye. Different concentrations of LTA were also added to examine the change in MIC values of TPA-1 against S. aureus. The experiments were conducted in triplicate."}, "[2]": {"test_system": "methicillin-resistant S. aureus (BAA 41)", "test": "MIC assay (broth microdilution, CLSI), without light", "format": "cell-based", "conditions": "Staphylococcus aureus", "method": "as §2"}, "[3]": {"test_system": "P. aeruginosa (ATCC 27853)", "test": "MIC assay (broth microdilution, CLSI), without light", "format": "cell-based", "conditions": "Pseudomonas aeruginosa, ATCC27853, light or radiation study", "method": "as §2"}, "[4]": {"test_system": "P. aeruginosa (ATCC 27853)", "test": "Wound infection mouse model, P. aeruginosa biofilm", "format": "in vivo", "conditions": "mice, topical 90 μM, 600 nm 15 min, every 24 h for 4 days (TPA-1 + L)", "method": "All in vivo experiments were approved by the Department of Science and Technology of Zhejiang Province (SYXK(Zhejiang)2021-0043). Female BALB/c mice (10–12 weeks old) were kept in 12 h light and 12 h dark cycle with access to free food and water for 7 days before and throughout the experiment. The backs of the mice were shaved and disinfected with iodine. A full-thickness circular wound (7 mm in diameter) was then created at the back of the mice. The mice were allowed to recover for 24 h after surgery to prevent sepsis.[65] Ten μL of 1× 10^8 CFU/mL MRSA (ATCC 43300) or P. aeruginosa (ATCC 27853) in saline was added to the wound. The wound was covered with an adhesive dressing for 24 h of infection. Next, the mice were randomly divided into four groups: (1) 50 μL TPA-1 (90 μM) with 600 nm light irradiation (60 mW/cm^2) for 15 min, (2) 50 μL TPA-1 (90 μM) in dark, (3) 50 μL saline with 600 nm light irradiation (60 mW/cm^2) for 15 min, and (4) 50 μL saline in dark. For light irradiation groups, TPA-1 and saline were incubated on the wound for 10 min before irradiation. The treatment was sustained for 4 days. The wound size and body weight of the mice were recorded every day. On day 6, the mice were euthanatized, and the wound tissue was collected. […] The other half of the tissue was homogenized, and the number of viable bacteria was measured by the plate counting method."}, "[5]": {"test_system": "S. aureus biofilm formation", "test": "S. aureus biofilm inhibition assay in the dark (crystal violet)", "format": "cell-based", "conditions": "Staphylococcus aureus, light or radiation study, without light irradiation", "method": "For biofilm inhibition assay, overnight culture of S. aureus in TSB was diluted to 1 × 10^7 CFU/mL in TSB (with 1% glucose). Ten μL of the diluted bacteria were added to a 96-well plate containing 90 μL of serial diluted TPA-1 in TSB (with 1% glucose). After overnight incubation at 37 °C in darkness, the medium in the well was removed. The remaining biofilm was washed with 200 μL of PBS (3 times) and fixed with 100 μL of methanol for 10 min. The well was left for drying. Then, 150 μL of 0.1% crystal violet was added to the wells and stained for 10 min. The crystal violet was removed, and the wells were washed with 200 μL of PBS (3 times). After drying, the remaining crystal violet was dissolved in 100 μL of 95% ethanol with gentle shaking, and the absorbance at 570 nm was recorded. The biofilm inhibition % was calculated as [1 – (ODTPA-1 – ODblank)/(ODmedium – ODblank)] × 100% where ODTPA-1, ODmedium and ODblank were the absorbances of the wells with bacteria treated TPA-1, with bacteria without treatment and with medium only, respectively. The experiment was performed in triplicate."}},
  "note": "Where two headings read alike, the source gives them in different places.",
  "data": [
    {"smiles": "C#CCC[n+]1c(/C=C/c2ccc(-c3ccc(N(c4ccc(OCCC[N+](C)(C)C)cc4)c4ccc(OCCC[N+](C)(C)C)cc4)cc3)s2)sc2ccccc21.[Br-].[Br-].[Br-]", "note": "[TPA-1]", "values": [
      {"measurement": "hemolysis at 1 h, 200 µM", "setting": "[1]", "value": "< 2", "unit": "%"},
      {"measurement": "HC50", "setting": "human erythrocytes", "value": "> 200", "unit": "µM"},
      {"measurement": "MIC", "setting": "S. aureus (ATCC 29213)", "value": 3.12, "unit": "µM"},
      {"measurement": "MIC", "setting": "[2]; ATCC BAA-41 / BAA-41, light or radiation study, read-out: MIC against ATCC BAA41 Methicillin-resistant Staphylococcus aureus without light irradiation", "value": 3.12, "unit": "µM"},
      {"measurement": "MIC", "setting": "[2]; BAA41, light or radiation study, read-out: MIC against methicillin-resistant S. aureus (BAA 41)", "value": 3.12, "unit": "µM"},
      {"measurement": "MIC", "setting": "[3]; read-out: MIC against ATCC 27853 Pseudomonas aeruginosa without light irradiation", "value": 100, "unit": "µM"},
      {"measurement": "MIC", "setting": "[3]; without light irradiation, read-out: MIC against P. aeruginosa (ATCC 27853)", "value": "> 100", "unit": "µM"},
      {"measurement": "P. aeruginosa eradicated in infected tissues", "setting": "[4]", "value": "96% ± 4%"},
      {"measurement": "P. aeruginosa log (CFU/mg tissue) reduction", "setting": "[4]", "value": "1.4 ± 0.4 log (CFU/mg tissue)"},
      {"measurement": "inhibition at 3.125 µM", "setting": "[5]; 1 × MIC (3.125 μM)", "value": "> 90", "unit": "%"},
      {"measurement": "inhibition at 6.25 µM", "setting": "[5]; ≥ 6.25 μM", "value": "> 99.9", "unit": "%"}
    ]}
  ]
}
